Results on 1 compound are retold here after US20220362182A1, “METHODS FOR REVERSING HEPATIC STEATOSIS” (BRIGHTSEED, INC., priority 2020, published 2022).

Structures are written as SMILES. “Also recorded” adds a separate entry of the source.

The subject of the data set is C57BL/6J DIO mice. Kind of data set: DIO mice injected IP for 14 days (hepatic steatosis). Format: in vivo. As to conditions: for serum free fatty acids (FFA): after glucose challenge; for hepatic stored fat by Oil Red O staining: liver sections; for hepatic stored fat by Oil Red O staining / alkaline phosphatase (ALP) / epididymal fat pad weight / hepatic triglyceride content / liver weight / hepatic steatosis: 200 mg/kg; for alkaline phosphatase (ALP) / epididymal fat pad weight / hepatic triglyceride content / liver weight: vs DMSO; for hepatic steatosis: two weeks; for toxicity / general condition: mice, IP, up to the highest dose administered. The procedure:
Compounds were injected IP into diet-induced obese mice at a dose of 200 mg/kg bid for two weeks. At that point, mice were sacrificed and organs were harvested for analysis. To test the hypothesis that HNF4a controls hepatic fat storage, N-trans-caffeoyltyramine was administered to C57BL/6J DIO mice maintained on a 60% fat calorie diet. Based upon PK studies with N-trans-caffeoyltyramine, IP injection was chosen for two week for these proof of concept studies. […] It was observed that N-trans-caffeoyltyramine was stimulating lipophagy (FIG. 1A).
Slides containing frozen liver tissue sections from mice were air dried for 10-20 min followed by rehydration in distilled water. Sections were immersed in absolute propylene glycol (Cat #151957, MP Biomedicals, LLC, USA) for 2 min followed by 0.5% in oil red O solution (Cat #K043, Poly Scientific R&D, USA) for 2 h. Slides were then differentiated in 85% propylene glycol solution, washed with dH2O for 2 h, and mounted using glycerin jelly mounting medium. All slides were scanned at a magnification of 20× using the Aperio Scanscope FL system (Aperio Technologies Inc., Vista, Calif., USA). The liver area stained with oil red O was measured using image J software as described, with some modifications. Oil red O-stained liver images were opened in Image J software. Using the Analyze>Set Scale command, the scale bar of the images was set to 200 um. RGB images were then converted into gray scale images using the Image>Type>RGB Stack command and were split into red, blue and green channels. Using the Image>Adjust>Threshold command, the threshold was manually set to highlight the oil red O-stained lipid droplets in the green channel. The same threshold was used for all the images in all treatment groups and the % oil red O-stained area was obtained using the Analyze→Measure tool command. Fold change was calculated by normalizing the values to images from mice fed normal chow.
12-week-old C57BL/6 J DIO male mice (cat #380050) were purchased from Jackson Laboratory and were fed with high fat diet containing 60 kcal % fat (Research Diets cat #D12492). Mice were maintained in a 12-h light/day cycle. After 2 weeks of acclimation, mice with similar body weights were randomly assigned to treatment or control groups.
For dose response experiments, mice were injected intraperitoneally with 10% DMSO as vehicle control or 4 different doses of NCT (30, 60, 120 and 240 mg/kg of body weight) dissolved in 10% DMSO. Mice received 2 doses per day with a 5 h interval between injections for 3 days. To test the effect of NCT (Sundia MediTech Company, Ltd., Custom synthesis), 200 mg/kg was injected IP bid for 14 days. On day 15, mice received a final dose of NCT followed by IP injection with 3 g/kg dextrose. One h later, blood samples were collected and mice were euthanized using pentobarbital. Total mouse, liver and epididymal fat pad weights were measured. Dissected liver samples were washed in cold PBS, cut into small pieces and distributed for analyses. For RNA isolation and ELISA, liver samples were snap frozen using liquid nitrogen and stored at −80° C. For histomorphometry and immunofluorescence analysis, liver samples were fixed in 4% of cold PFA and processed for histology. All animal experiments were approved by the Institutional Animal Care and Use Committee (IACUC) of the Sanford Burnham Prebys Medical Discovery Institute in accordance with national regulations.
The serum FFA level was measured using the Free Fatty Acid Quantification Colorimetric/Fluorometric Kit (Cat #K612, BioVision, USA). Fold change was calculated by normalizing to values from mice fed normal chow.
Serum and liver TG level was measured using the Triglyceride calorimetric Assay Kit (Cat #10010303, Cayman Chemicals, USA). Fold change was calculated by normalizing the values from normal chow mice. […]

The mark [1] stands for this setting: DIO mice, 200 mg/kg bid IP, 14 days.
Setting [2] is: DIO mice, 200 mg/kg bid IP, 14 days, listed as N-trans-caffeoyltyramine.

In the case of `O=C(/C=C/c1ccc(O)c(O)c1)NCCc1ccc(O)cc1` [NCT, N-trans-caffeoyltyramine], the “toxicity / general condition” value is “remained healthy and active; also recorded: unable to establish a maximum tolerated dose because of the lack of toxicity; also recorded: completely nontoxic at the highest dose administered”. Under setting [1], the “color of the liver” value is reported as “shift in the color of the liver from yellow to red”, the “other markers of liver function in the VetScan panel” value is “no change”, the “serum free fatty acids (FFA)” value is “induced an increase in free fatty acids” and the “hepatic stored fat by Oil Red O staining” value is given as “decrease in stored fat by Oil Red O staining”. Moreover, under setting [1], the “alkaline phosphatase (ALP)” value is listed as “decreased ALP; also recorded: decrease in ALP”, the “epididymal fat pad weight” value is listed as “increase in epididymal fat pad mass; also recorded: increased weight”, the hepatic triglyceride content result is “reduction in the hepatic triglyceride content” and the liver weight result is reported as “weighed less than those of the control mice”. Further, under setting [2], the “serum free fatty acids (FFA)” value is given as “induced an increase in free fatty acids; also recorded: Serum FFA were increased”, the “hepatic stored fat by Oil Red O staining” value was “decrease in stored fat by Oil Red O staining; also recorded: significantly reduced the Oil Red O”, the “alkaline phosphatase (ALP)” value is listed as “ALP was decreased” and the “epididymal fat pad weight” value is recorded as “increase in epididymal fat pad mass; also recorded: increase in epididymal fat pad weight”. Moreover, under setting [2], the hepatic triglyceride content result is listed as “hepatic triglyceride content was decreased; also recorded: significantly reduced” and the liver weight entry is “weighed less than those of the control mice; also recorded: decreased liver weight”. Also, the body weight gain result (DIO mice, 200 mg/kg bid IP, 14 days, vs control) is reported as “gained weight to a similar degree”. Under “DIO mice, 200 mg/kg bid IP”, the hepatic steatosis entry is listed as “reversed hepatic steatosis; also recorded: reversal of hepatic steatosis; also recorded: reduction of steatosis”. The hepatic steatosis entry (DIO mice, 200 mg/kg bid IP, listed as N-trans-caffeoyltyramine) is on record as “reverses hepatic steatosis”. Also, the “serum TG at week 1” value (DIO mice, 200 mg/kg bid IP, week 1) is “increased”. For the setting “DIO mice, 200 mg/kg bid IP, week 2, end of the study”, the “serum TG at week 2” value is given as “not at week 2”. For the same compound, for the setting “listed as N-trans-caffeoyltyramine”, the “toxicity / general condition” value was “remained healthy and active”.
